This is an account of results in patent publication US20200190101A1, “Composition Containing Novel Glutamic Acid Derivative And Block Copolymer, And Use Thereof” (Nippon Kayaku Kabushiki Kaisha, priority 2015, published 2020).

This experiment has as its system γ-glutamyl transpeptidase (GGT). As to the kind of experiment: γ-Glutamyl transpeptidase (GGT) enzyme recognition test. The following applies: 2 mM PBS solution + 2 U/mL GGT solution, 37° C.; for Residual ratio of unchanged drug: HPLC. It counts as biochemical. Here is the method:
To 0.150 mL of this doxorubicin-bonded glutamic acid derivative (prodrug) PBS solution, 0.150 mL of a 2 U/mL GGT solution obtained by dissolving GGT (0.22 mg, 8 U/mg) (Sigma-Aldrich Company) in PBS (0.880 mL) was added, and the mixture was allowed to react at 37° C.
The reaction liquid was analyzed by HPLC, and thus the residual ratio of the doxorubicin-bonded glutamic acid derivative (prodrug) and the production ratio of doxorubicin were determined.
To 0.100 mL of the doxorubicin-bonded glutamic acid derivative PBS solution, 0.100 mL of a 2 U/mL GGT solution obtained by dissolving GGT (0.38 mg, 8 U/mg) (Sigma-Aldrich Company) in PBS (1.520 mL) was added, and the mixture was allowed to react at 37° C. […]

For `COc1cccc2c1C(=O)c1c(O)c3c(c(O)c1C2=O)C[C@@](O)(C(=O)CO)CC3OC1CC(NC(=O)OCc2ccc(NC(=O)CCC(N)C(=O)O)cc2)C(O)C(C)O1` (stereo partly drawn) [Synthesis Example 1, (((4-((S)-4-amino-4-carboxybutanamide)benzyl)oxy)carbonyl)doxorubicin], the Doxorubicin production rate by setting is: (reaction time 0 hr) 0%; (reaction time 1 hr) 49%; (reaction time 6.5 hr) 98%. Further, the “Residual ratio of unchanged drug” value (reaction time 0 hr) is on record as 100%, the “Residual ratio of unchanged drug” value (reaction time 1 hr) worked out at 39% and the “Residual ratio of unchanged drug” value (reaction time 6.5 hr) came out at 1%.
